One data set addresses T1, hGLP1R (Homo sapiens, UniProt P43220).
T1 construct: expressed in transfected cells; host or cells: HEK-293 CRE-luciferase reporter cells
Put plainly: hGLP1R CreLuc assay in 0.5% and 100% plasma (HEK-293 CRE-luciferase reporter cells). It counts as cell-based. Conditions: HEK-293 reporter cells.

For the next data set, the target named is T2, hGIPR (Homo sapiens, UniProt P48546).
T2 construct: expressed in transfected cells; host or cells: CHO CRE-luciferase reporter cells
T2 sequence (P48546 22-466): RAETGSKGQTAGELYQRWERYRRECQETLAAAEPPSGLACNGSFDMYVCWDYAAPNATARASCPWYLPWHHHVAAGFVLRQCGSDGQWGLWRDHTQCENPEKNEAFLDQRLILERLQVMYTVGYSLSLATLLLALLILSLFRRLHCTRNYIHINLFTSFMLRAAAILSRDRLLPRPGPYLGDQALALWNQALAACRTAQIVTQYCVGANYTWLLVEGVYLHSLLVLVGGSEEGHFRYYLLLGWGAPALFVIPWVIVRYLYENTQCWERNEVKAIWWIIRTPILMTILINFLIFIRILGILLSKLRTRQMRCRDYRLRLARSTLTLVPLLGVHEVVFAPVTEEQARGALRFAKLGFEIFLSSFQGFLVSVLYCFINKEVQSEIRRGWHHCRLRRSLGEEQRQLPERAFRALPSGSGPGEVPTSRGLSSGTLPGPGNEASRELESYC
Put plainly: hGIPR CreLuc assay in 0.5% and 100% plasma (CHO CRE-luciferase reporter cells). It counts as cell-based. In general terms: A reporter such as luciferase makes a cellular process visible.

Data set [1] can be described thus: Solubility in 0.1 M phosphate buffer at pH 7. In kind it is physicochemical. As to conditions: 0.1 M phosphate buffer at pH 7, 10 mg/mL final peptide concentration, shaking 2 hours at room temperature, peptides as TFA-salts, measured sample pH 6.5-7.0; for solubility: read-out: Solubility.
[2] abbreviates: 0.5% human plasma, read-out: hGLP1R 0.5% hP.
Where [3] appears, read: 100% human plasma, read-out: hGLP1R 100% hP.
Where [4] appears, read: 0.5% human plasma, read-out: hGIPR 0.5% hP.

As a reminder, the solubility is the concentration that dissolves in the medium under given conditions.

Each structure is given as a SMILES string. Read-outs that look alike come from different tables or passages of the source. *1 amine or outer side, *2 acyl side, *3 side chain or, on linkers, in order; H or OH if unused. Where a SMILES comes first, the peptide text is derived from it. Side-chain parts run from the residue outwards. [ ]: non-standard residue; d: D form. The star is where a group is joined. C18 diacid = O=C(O)CCCCCCCCCCCCCCCCC(=O)*; γGlu = O=C(O)[C@H](CCC(=O)[*:2])N[*:1]; Aib = CC(C)(N)C(=O)O

T1 sequence (P43220 24-463): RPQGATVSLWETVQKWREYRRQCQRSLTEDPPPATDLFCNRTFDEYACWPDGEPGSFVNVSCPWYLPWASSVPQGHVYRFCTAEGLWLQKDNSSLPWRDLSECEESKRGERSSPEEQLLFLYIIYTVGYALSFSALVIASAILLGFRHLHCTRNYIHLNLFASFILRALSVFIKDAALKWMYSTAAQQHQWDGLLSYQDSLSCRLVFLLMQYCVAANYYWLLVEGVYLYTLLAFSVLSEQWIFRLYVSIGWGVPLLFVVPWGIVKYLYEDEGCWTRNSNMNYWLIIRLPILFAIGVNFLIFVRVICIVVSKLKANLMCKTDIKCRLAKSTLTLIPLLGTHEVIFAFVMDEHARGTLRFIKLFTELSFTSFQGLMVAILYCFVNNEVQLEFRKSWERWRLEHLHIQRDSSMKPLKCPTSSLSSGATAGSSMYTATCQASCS

For `CC[C@H](C)[C@H](NC(=O)[C@H](CC(C)C)NC(=O)[C@H](Cc1c[nH]cn1)NC(=O)[C@H](CCCNC(=N)N)NC(=O)[C@@H](NC(=O)[C@H](Cc1ccccc1)NC(=O)[C@H](CCC(=O)O)NC(=O)C(C)(C)NC(=O)[C@H](CCC(N)=O)NC(=O)[C@H](C)NC(=O)[C@H](CCC(N)=O)NC(=O)[C@H](CCC(=O)O)NC(=O)[C@H](CCC(=O)O)NC(=O)[C@H](CC(C)C)NC(=O)C(C)(C)NC(=O)[C@@H](NC(=O)[C@H](CO)NC(=O)[C@H](Cc1ccc(O)cc1)NC(=O)[C@H](CC(=O)O)NC(=O)[C@H](CO)NC(=O)[C@@H](NC(=O)[C@H](Cc1ccccc1)NC(=O)[C@@H](NC(=O)CNC(=O)[C@H](CCC(=O)O)NC(=O)C(C)(C)NC(=O)[C@@H](N)Cc1ccc(O)cc1)[C@@H](C)O)[C@@H](C)O)[C@@H](C)CC)C(C)C)C(=O)N[C@@H](CC(N)=O)C(=O)N[C@@H](CCCCNC(=O)CC[C@H](NC(=O)CC[C@H](NC(=O)CC[C@H](NC(=O)CC[C@H](NC(=O)CCCCCCCCCCCCCCCCC(=O)O)C(=O)O)C(=O)O)C(=O)O)C(=O)O)C(=O)NC(C)(C)C(=O)N[C@H](C(=O)N[C@@H](CCCNC(=N)N)C(=O)N[C@@H](CCC(N)=O)C(=O)N[C@@H](CCCNC(=N)N)C(=O)N[C@@H](Cc1ccc(O)cc1)C(N)=O)[C@@H](C)O` [Compound 129, Y-Aib-E-G-T-F-T-S-D-Y-S-I-Aib-L-E-E-Q-A-Q-Aib-E-F-V-R-H-L-I-N-K(1,3)-Aib-T-R-Q-R-Y-NH2.C18DA-gGlu-gGlu-gGlu-gGlu(1,2)] (H-Y[Aib]EGTFTSDYSI[Aib]LEEQAQ[Aib]EFVRHLINK([γGlu-γGlu-γGlu-γGlu-C18 diacid])[Aib]TRQRY-NH2), the EC50 is 0.9 nM at hGLP1R (setting [2]); 2.8 nM at hGLP1R (setting [3]); 0.4 nM at hGIPR (setting [4]); 7.1 nM at hGIPR (100% human plasma, read-out: hGIPR 100% hP). Also, the solubility at 2 h in data set [1] stood at 5100 µg/mL.
With `CC[C@H](C)[C@H](NC(=O)[C@H](CC(C)C)NC(=O)[C@H](Cc1c[nH]cn1)NC(=O)[C@H](CCCNC(=N)N)NC(=O)[C@@H](NC(=O)[C@H](Cc1ccccc1)NC(=O)[C@H](CCC(=O)O)NC(=O)C(C)(C)NC(=O)[C@H](CCC(N)=O)NC(=O)[C@H](C)NC(=O)[C@H](CCC(=O)O)NC(=O)[C@H](CCC(=O)O)NC(=O)[C@H](CCC(=O)O)NC(=O)[C@H](CC(C)C)NC(=O)C(C)(C)NC(=O)[C@@H](NC(=O)[C@H](CO)NC(=O)[C@H](Cc1ccc(O)cc1)NC(=O)[C@H](CC(=O)O)NC(=O)[C@H](CO)NC(=O)[C@@H](NC(=O)[C@H](Cc1ccccc1)NC(=O)[C@@H](NC(=O)CNC(=O)[C@H](CCC(=O)O)NC(=O)C(C)(C)NC(=O)[C@@H](N)Cc1ccc(O)cc1)[C@@H](C)O)[C@@H](C)O)[C@@H](C)CC)C(C)C)C(=O)N[C@@H](CC(N)=O)C(=O)N[C@@H](CCCCNC(=O)COCCOCCNC(=O)COCCOCCNC(=O)CC[C@H](NC(=O)CCCCCCCCCCCCCCCCC(=O)O)C(=O)O)C(=O)NC(C)(C)C(=O)N[C@H](C(=O)N[C@@H](CCCNC(=N)N)C(=O)N[C@@H](CCC(N)=O)C(=O)N[C@@H](CCCNC(=N)N)C(=O)N[C@@H](Cc1ccc(O)cc1)C(N)=O)[C@@H](C)O` [Compound 130, Y-Aib-E-G-T-F-T-S-D-Y-S-I-Aib-L-E-E-E-A-Q-Aib-E-F-V-R-H-L-I-N-K(1,3)-Aib-T-R-Q-R-Y-NH2.C18DA-gGlu-OEG-OEG(1,2)], the EC50 at hGLP1R (setting [2]) and at hGIPR (setting [4]) was 0.5 nM throughout. In addition, in data set [1], the solubility at 2 h came out at 5000 µg/mL.
For `CC[C@H](C)[C@H](NC(=O)[C@H](CC(C)C)NC(=O)[C@H](Cc1c[nH]cn1)NC(=O)[C@H](CCCNC(=N)N)NC(=O)[C@@H](NC(=O)[C@H](Cc1ccccc1)NC(=O)[C@H](C)NC(=O)C(C)(C)NC(=O)[C@H](CCC(N)=O)NC(=O)[C@H](C)NC(=O)[C@H](CCC(N)=O)NC(=O)[C@H](CCCCN)NC(=O)[C@H](CCC(=O)O)NC(=O)[C@H](CC(C)C)NC(=O)C(C)(C)NC(=O)[C@@H](NC(=O)[C@H](CO)NC(=O)[C@H](Cc1ccc(O)cc1)NC(=O)[C@H](CC(=O)O)NC(=O)[C@H](CO)NC(=O)[C@@H](NC(=O)[C@H](Cc1ccccc1)NC(=O)[C@@H](NC(=O)CNC(=O)[C@H](CCC(=O)O)NC(=O)C(C)(C)NC(=O)[C@@H](N)Cc1ccc(O)cc1)[C@@H](C)O)[C@@H](C)O)[C@@H](C)CC)C(C)C)C(=O)N[C@@H](CC(N)=O)C(=O)N[C@@H](CCCCNC(=O)[C@@H](N)CCCCNC(=O)CC[C@H](NC(=O)CC[C@H](NC(=O)CC[C@H](NC(=O)CC[C@H](NC(=O)CC[C@H](NC(=O)CCCCCCCCCCCCCCCCC(=O)O)C(=O)O)C(=O)O)C(=O)O)C(=O)O)C(=O)O)C(=O)NC(C)(C)C(=O)N[C@H](C(=O)N[C@@H](CCCNC(=N)N)C(=O)N[C@@H](CCC(N)=O)C(=O)N[C@@H](CCCNC(=N)N)C(=O)N[C@@H](Cc1ccc(O)cc1)C(N)=O)[C@@H](C)O` [Compound 141, Y-Aib-E-G-T-F-T-S-D-Y-S-I-Aib-L-E-K-Q-A-Q-Aib-A-F-V-R-H-L-I-N-K(1,3)-Aib-T-R-Q-R-Y-NH2.C18DA-gGlu-gGlu-gGlu-gGlu-gGlu-eLys(1,2)], the EC50 was determined as 0.8 nM at hGLP1R (setting [2]) and 0.1 nM at hGIPR (setting [4]). Besides, the solubility in data set [1] was 1100 µg/mL.
As for `CC[C@H](C)[C@H](NC(=O)[C@H](CC(C)C)NC(=O)[C@H](Cc1c[nH]cn1)NC(=O)[C@H](CCCNC(=N)N)NC(=O)[C@@H](NC(=O)[C@H](Cc1ccccc1)NC(=O)[C@H](CCC(=O)O)NC(=O)C(C)(C)NC(=O)[C@H](CCC(N)=O)NC(=O)[C@H](C)NC(=O)[C@H](CCC(N)=O)NC(=O)[C@H](CCCCN)NC(=O)[C@H](CCC(=O)O)NC(=O)[C@H](CC(C)C)NC(=O)C(C)(C)NC(=O)[C@@H](NC(=O)[C@H](CO)NC(=O)[C@H](Cc1ccc(O)cc1)NC(=O)[C@H](CC(=O)O)NC(=O)[C@H](CO)NC(=O)[C@@H](NC(=O)[C@H](Cc1ccccc1)NC(=O)[C@@H](NC(=O)CNC(=O)[C@H](CCC(=O)O)NC(=O)C(C)(C)NC(=O)[C@@H](N)Cc1ccc(O)cc1)[C@@H](C)O)[C@@H](C)O)[C@@H](C)CC)C(C)C)C(=O)N[C@@H](CC(N)=O)C(=O)N[C@@H](CCCCNC(=O)[C@@H](N)CCCCNC(=O)CC[C@H](NC(=O)CC[C@H](NC(=O)CC[C@H](NC(=O)CC[C@H](NC(=O)CC[C@H](NC(=O)CC[C@H](NC(=O)CCCCCCCCCCCCCCCCC(=O)O)C(=O)O)C(=O)O)C(=O)O)C(=O)O)C(=O)O)C(=O)O)C(=O)NC(C)(C)C(=O)N[C@H](C(=O)N[C@@H](CCCNC(=N)N)C(=O)N[C@@H](CCC(N)=O)C(=O)N[C@@H](CCCNC(=N)N)C(=O)N[C@@H](Cc1ccc(O)cc1)C(N)=O)[C@@H](C)O` [Compound 145, Y-Aib-E-G-T-F-T-S-D-Y-S-I-Aib-L-E-K-Q-A-Q-Aib-E-F-V-R-H-L-I-N-K(1,3)-Aib-T-R-Q-R-Y-NH2.C18DA-gGlu-gGlu-gGlu-gGlu-gGlu-gGlu-eLys(1,2)], the EC50 amounted to 0.5 nM on hGLP1R (setting [2]), 1.8 nM on hGLP1R (setting [3]) and 0.3 nM on hGIPR (setting [4]). Besides, the solubility at 2 h in data set [1] amounted to 5000 µg/mL.
As for `CC[C@H](C)[C@H](NC(=O)[C@H](CC(C)C)NC(=O)[C@H](Cc1c[nH]cn1)NC(=O)[C@H](CCCNC(=N)N)NC(=O)[C@@H](NC(=O)[C@H](Cc1ccccc1)NC(=O)[C@H](C)NC(=O)C(C)(C)NC(=O)[C@H](CCC(N)=O)NC(=O)[C@H](C)NC(=O)[C@H](CCC(N)=O)NC(=O)[C@H](CCCCN)NC(=O)[C@H](CCC(=O)O)NC(=O)[C@H](CC(C)C)NC(=O)C(C)(C)NC(=O)[C@H](C)NC(=O)[C@H](CO)NC(=O)[C@H](Cc1ccc(O)cc1)NC(=O)[C@H](CC(=O)O)NC(=O)[C@H](CO)NC(=O)[C@@H](NC(=O)[C@H](Cc1ccccc1)NC(=O)[C@@H](NC(=O)CNC(=O)[C@H](CCC(=O)O)NC(=O)C(C)(C)NC(=O)[C@@H](N)Cc1ccc(O)cc1)[C@@H](C)O)[C@@H](C)O)C(C)C)C(=O)N[C@@H](CC(N)=O)C(=O)N[C@@H](CCCCNC(=O)[C@@H](N)CCCCNC(=O)CC[C@H](NC(=O)CC[C@H](NC(=O)CC[C@H](NC(=O)CC[C@H](NC(=O)CC[C@H](NC(=O)CC[C@H](NC(=O)CCCCCCCCCCCCCCCCC(=O)O)C(=O)O)C(=O)O)C(=O)O)C(=O)O)C(=O)O)C(=O)O)C(=O)NC(C)(C)C(=O)N[C@H](C(=O)N[C@@H](CCCNC(=N)N)C(=O)N[C@@H](CCC(N)=O)C(=O)N[C@@H](CCCNC(=N)N)C(=O)N[C@@H](Cc1ccc(O)cc1)C(N)=O)[C@@H](C)O` [Compound 156, Y-Aib-E-G-T-F-T-S-D-Y-S-A-Aib-L-E-K-Q-A-Q-Aib-A-F-V-R-H-L-I-N-K(1,3)-Aib-T-R-Q-R-Y-NH2.C18DA-gGlu-gGlu-gGlu-gGlu-gGlu-gGlu-eLys(1,2)], the EC50 on hGLP1R (setting [2]) turned out to be 7 nM; at hGIPR (setting [4]) it was 0.8 nM. The solubility in data set [1] was 5100 µg/mL.

The values are drawn from US20250382344A1, “Soluble GLP1/GIP/NPY2 Receptor Triple Agonists” (Boehringer Ingelheim International GmH, priority 2024, published 2025).
